In US20260232767A1, “INTERLEUKIN-23 RECEPTOR ANTAGONIST PEPTIDES FOR USE IN THE TREATMENT OF PSORIASIS” (Janssen Pharmaceutica NV, priority 2023, published 2026):

Test system: subjects with moderate-to-severe plaque psoriasis
Assay: Safety, adverse events, Example 2 through Week 56
Format: in vivo, human
Conditions: through Week 56
Text: The LTE safety analysis was based on randomized participants in Example who entered the present long-term extension study and received at least one dose of study intervention (including a partial dose) during the study period.

[1] = Placebo → 100 mg QD after crossover

CC(=O)NCCCC[C@@H]1NC(=O)[C@H](Cc2c[nH]c3c(C)cccc23)NC(=O)[C@H]([C@@H](C)O)NC(=O)[C@H](CC(N)=O)NC(=O)[C@@H](NC(C)=O)C(C)(C)SSC(C)(C)[C@@H](C(=O)N[C@@H](Cc2ccc(OCCN)cc2)C(=O)N[C@@H](Cc2ccc3ccccc3c2)C(=O)NC2(C(=O)N[C@@H](CCC(=O)O)C(=O)N[C@@H](CC(N)=O)C(=O)N[C@@H](Cc3cccnc3)C(=O)N(C)CC(N)=O)CCOCC2)NC1=O [IL-23 receptor antagonist peptide, Ac-[Pen]*-N-T-[W(7-Me)]-[Lys(Ac)]-[Pen]*-Phe[4-(2-aminoethoxy)]-[2-Nal]-[THP]-E-N-[3-Pal]-Sarc-NH2 (*[Pen]-[Pen]* formdisulfidebond)]
Subjects with Mouth ulceration: 0
Subjects with Tendonitis: 0
Subjects with 1 or more Adverse events (25 mg BID): (78.0%)
Subjects with 1 or more Adverse events: Alanine aminotransferase increased (25 mg BID): (2.4%)
Subjects with 1 or more Adverse events: Aspartate aminotransferase increased (25 mg BID): (2.4%)
Subjects with 1 or more Adverse events: Bronchitis (25 mg BID): (4.9%)
Subjects with 1 or more Adverse events: COVID-19 (25 mg BID): (22.0%)
Subjects with 1 or more Adverse events: Diarrhea (25 mg BID): (4.9%)
Subjects with 1 or more Adverse events: Headache (25 mg BID): (7.3%)
Subjects with 1 or more Adverse events: Influenza (25 mg BID): (7.3%)
Subjects with 1 or more Adverse events: Nasopharyngitis (25 mg BID): (19.5%)
Subjects with 1 or more Adverse events: Upper respiratory tract infection (25 mg BID): (7.3%)
Subjects with 1 or more Adverse events: Urinary tract infection (25 mg BID): (2.4%)
Subjects with 1 or more Serious adverse events (25 mg BID): (7.3%)
Subjects with 1 or more Serious adverse events: Ligament injury (25 mg BID): (2.4%)
Subjects with 1 or more Serious adverse events: Tonsillar hypertrophy (25 mg BID): (2.4%)
Subjects with 1 or more Serious adverse events: Ventricular dysfunction (25 mg BID): (2.4%)
Subjects with 1 or more treatment-emergent adverse events leading to discontinuation of study agent (25 mg BID): (4.9%)
Subjects with 1 or more Adverse events (25 mg QD): (55.8%)
Subjects with 1 or more Adverse events: Alanine aminotransferase increased (25 mg QD): (2.3%)
Subjects with 1 or more Adverse events: Arthralgia (25 mg QD): (2.3%)
Subjects with 1 or more Adverse events: Aspartate aminotransferase increased (25 mg QD): (2.3%)
Subjects with 1 or more Adverse events: Bronchitis (25 mg QD): (4.7%)
Subjects with 1 or more Adverse events: COVID-19 (25 mg QD): (14.0%)
Subjects with 1 or more Adverse events: Cough (25 mg QD): (2.3%)
Subjects with 1 or more Adverse events: Diarrhea (25 mg QD): (4.7%)
Subjects with 1 or more Adverse events: Headache (25 mg QD): (4.7%)
Subjects with 1 or more Adverse events: Nasopharyngitis (25 mg QD): (7.0%)
Subjects with 1 or more Adverse events: Upper respiratory tract infection (25 mg QD): (16.3%)
Subjects with 1 or more Adverse events: Urinary tract infection (25 mg QD): (4.7%)
Subjects with 1 or more treatment-emergent adverse events leading to discontinuation of study agent (25 mg QD): (7.0%)
Subjects with 1 or more Adverse events (50 mg QD): (74.4%)
Subjects with 1 or more Adverse events: Alanine aminotransferase increased (50 mg QD): (2.3%)
Subjects with 1 or more Adverse events: Arthralgia (50 mg QD): (2.3%)
Subjects with 1 or more Adverse events: Aspartate aminotransferase increased (50 mg QD): (2.3%)
Subjects with 1 or more Adverse events: Bronchitis (50 mg QD): (9.3%)
Subjects with 1 or more Adverse events: COVID-19 (50 mg QD): (14.0%)
Subjects with 1 or more Adverse events: Cough (50 mg QD): (4.7%)
Subjects with 1 or more Adverse events: Diarrhea (50 mg QD): (9.3%)
Subjects with 1 or more Adverse events: Headache (50 mg QD): (2.3%)
Subjects with 1 or more Adverse events: Influenza (50 mg QD): (2.3%)
Subjects with 1 or more Adverse events: Nasopharyngitis (50 mg QD): (30.2%)
Subjects with 1 or more Adverse events: Upper respiratory tract infection (50 mg QD): (7.0%)
Subjects with 1 or more Adverse events: Urinary tract infection (50 mg QD): (2.3%)
Subjects with 1 or more Serious adverse events (50 mg QD): (7.0%)
Subjects with 1 or more Serious adverse events: Coronary artery disease (50 mg QD): (2.3%)
Subjects with 1 or more Serious adverse events: Foot deformity (50 mg QD): (2.3%)
Subjects with 1 or more Serious adverse events: Infected cyst (50 mg QD): (2.3%)
Subjects with 1 or more Serious adverse events: Non-cardiac chest pain (50 mg QD): (2.3%)
Subjects with 1 or more treatment-emergent adverse events leading to discontinuation of study agent (50 mg QD): (4.7%)
Subjects with 1 or more Adverse events (100 mg BID): (76.2%)
Subjects with 1 or more Adverse events: Alanine aminotransferase increased (100 mg BID): (9.5%)
Subjects with 1 or more Adverse events: Arthralgia (100 mg BID): (4.8%)
Subjects with 1 or more Adverse events: Aspartate aminotransferase increased (100 mg BID): (7.1%)
Subjects with 1 or more Adverse events: COVID-19 (100 mg BID): (16.7%)
Subjects with 1 or more Adverse events: Cough (100 mg BID): (4.8%)
Subjects with 1 or more Adverse events: Diarrhea (100 mg BID): (2.4%)
Subjects with 1 or more Adverse events: Headache (100 mg BID): (2.4%)
Subjects with 1 or more Adverse events: Influenza (100 mg BID): (2.4%)
Subjects with 1 or more Adverse events: Nasopharyngitis (100 mg BID): (11.9%)
Subjects with 1 or more Adverse events: Upper respiratory tract infection (100 mg BID): (11.9%)
Subjects with 1 or more Adverse events: Urinary tract infection (100 mg BID): (4.8%)
Subjects with 1 or more Serious adverse events (100 mg BID): (2.4%)
Subjects with 1 or more Serious adverse events: Uterine leiomyoma (100 mg BID): (2.4%)
Subjects with 1 or more treatment-emergent adverse events leading to discontinuation of study agent (100 mg BID): (2.4%)
Subjects with 1 or more Adverse events (100 mg QD): (72.1%)
Subjects with 1 or more Adverse events: Arthralgia (100 mg QD): (7.0%)
Subjects with 1 or more Adverse events: COVID-19 (100 mg QD): (11.6%)
Subjects with 1 or more Adverse events: Cough (100 mg QD): (7.0%)
Subjects with 1 or more Adverse events: Diarrhea (100 mg QD): (2.3%)
Subjects with 1 or more Adverse events: Headache (100 mg QD): (11.6%)
Subjects with 1 or more Adverse events: Influenza (100 mg QD): (2.3%)
Subjects with 1 or more Adverse events: Nasopharyngitis (100 mg QD): (25.6%)
Subjects with 1 or more Adverse events: Upper respiratory tract infection (100 mg QD): (4.7%)
Subjects with 1 or more Serious adverse events (100 mg QD): (7.0%)
Subjects with 1 or more Serious adverse events: COVID-19 (100 mg QD): (2.3%)
Subjects with 1 or more Serious adverse events: Diverticulitis (100 mg QD): (2.3%)
Subjects with 1 or more Serious adverse events: Intervertebral disc protrusion (100 mg QD): (2.3%)
Subjects with 1 or more Serious adverse events: Suicide attempt (100 mg QD): (2.3%)
Subjects with 1 or more treatment-emergent adverse events leading to discontinuation of study agent (100 mg QD): (4.7%)
Subjects with 1 or more Adverse events (Combined): (70.4%)
Subjects with 1 or more Adverse events: Alanine aminotransferase increased (Combined): (3.6%)
Subjects with 1 or more Adverse events: Arthralgia (Combined): (3.2%)
Subjects with 1 or more Adverse events: Aspartate aminotransferase increased (Combined): (2.8%)
Subjects with 1 or more Adverse events: Bronchitis (Combined): (3.6%)
Subjects with 1 or more Adverse events: COVID-19 (Combined): (14.2%)
Subjects with 1 or more Adverse events: Cough (Combined): (3.2%)
Subjects with 1 or more Adverse events: Diarrhea (Combined): (4.5%)
Subjects with 1 or more Adverse events: Headache (Combined): (4.9%)
Subjects with 1 or more Adverse events: Influenza (Combined): (2.8%)
Subjects with 1 or more Adverse events: Nasopharyngitis (Combined): (19.8%)
Subjects with 1 or more Adverse events: Upper respiratory tract infection (Combined): (9.7%)
Subjects with 1 or more Adverse events: Urinary tract infection (Combined): (3.2%)
Subjects with 1 or more Serious adverse events (Combined): (4.5%)
Subjects with 1 or more Serious adverse events: COVID-19 (Combined): (0.4%)
Subjects with 1 or more Serious adverse events: Cerebrovascular accident (Combined): (0.4%)
Subjects with 1 or more Serious adverse events: Coronary artery disease (Combined): (0.4%)
Subjects with 1 or more Serious adverse events: Diverticulitis (Combined): (0.4%)
Subjects with 1 or more Serious adverse events: Foot deformity (Combined): (0.4%)
Subjects with 1 or more Serious adverse events: Infected cyst (Combined): (0.4%)
Subjects with 1 or more Serious adverse events: Intervertebral disc protrusion (Combined): (0.4%)
Subjects with 1 or more Serious adverse events: Ligament injury (Combined): (0.4%)
Subjects with 1 or more Serious adverse events: Non-cardiac chest pain (Combined): (0.4%)
Subjects with 1 or more Serious adverse events: Suicide attempt (Combined): (0.4%)
Subjects with 1 or more Serious adverse events: Tonsillar hypertrophy (Combined): (0.4%)
Subjects with 1 or more Serious adverse events: Uterine leiomyoma (Combined): (0.4%)
Subjects with 1 or more Serious adverse events: Ventricular dysfunction (Combined): (0.4%)
Subjects with 1 or more treatment-emergent adverse events leading to discontinuation of study agent (Combined): (4.0%)
Subjects with 1 or more Adverse events [1]: (65.7%)
Subjects with 1 or more Adverse events: Alanine aminotransferase increased [1]: (5.7%)
Subjects with 1 or more Adverse events: Arthralgia [1]: (2.9%)
Subjects with 1 or more Adverse events: Aspartate aminotransferase increased [1]: (2.9%)
Subjects with 1 or more Adverse events: Bronchitis [1]: (2.9%)
Subjects with 1 or more Adverse events: COVID-19 [1]: (5.7%)
Subjects with 1 or more Adverse events: Diarrhea [1]: (2.9%)
Subjects with 1 or more Adverse events: Influenza [1]: (2.9%)
Subjects with 1 or more Adverse events: Nasopharyngitis [1]: (25.7%)
Subjects with 1 or more Adverse events: Upper respiratory tract infection [1]: (11.4%)
Subjects with 1 or more Adverse events: Urinary tract infection [1]: (5.7%)
Subjects with 1 or more Serious adverse events [1]: (2.9%)
Subjects with 1 or more Serious adverse events: Cerebrovascular accident [1]: (2.9%)
